Marks after values point to notes of the source that are not given here.
Tests used:
CYP2C = assay: Diclofenac 4-hydroxylation in liver microsomes of treated rats; assay type: in vivo; conditions: rat liver microsomes; oral 2 g/kg APE or 50 mg/kg AND daily for 5 days
Description: (§1) Liver was homogenized (1 : 4, w/v) in an ice-cold potassium phosphate buffer (pH 7.4) containing 7.4 mM K2HPO4, 2.6 mM KH2PO4, 1.15% KCl, and 1 mM phenylmethylsulfonyl fluoride (PMSF). Tissue homogenates were centrifuged at 10,000 ×g for 30 min at 4°C. The resulting supernatant was then centrifuged at 105,000 ×g for 1 h at 4°C. The microsomes thus obtained were washed several times to get rid of possible tolbutamide contamination and this can avoid tolbutamide interference of CYP activity, and the microsomes were then suspended in potassium phosphate buffer (pH 7.7) containing 7.5 mM K2HPO4, 14.5 mM KH2PO4, and 1 mM EDTA. […] Metabolites of each CYP enzyme reaction were determined by LC/MS as reported previously. The contents of total CYP and cytochrome b5 were quantified by the method of Omura and Sato [29]. Enzyme activity is expressed as picomoles of metabolite formed per minute per milligram of protein. The NADPH-CYP reductase activity was measured as described by Phillips and Langdon with the use of cytochrome c as the substrate. The microsomal protein concentration was determined by using a Coomassie Plus protein assay kit (Pierce, Rockford, IL, USA).

[1] = test system: CYP1A1, CYP1A2, CYP2C6, CYP2C11, and CYP3A2; assay: RT-PCR of hepatic CYP isozyme mRNA in treated rats; assay type: in vivo; conditions: rat liver, APE or andrographolide for 5 days
From the text: (§2) Total RNA in liver samples was extracted by using the Trizol reagent (1 : 20, w/v). […] The sequences for the PCR primers were as follows: for CYP1A1 (forward: 5′-[…]-3′; reverse: 5′-[…]-3′), CYP1A2 (forward: 5′-[…]-3′; reverse: 5′-[…]-3′), CYP2C6 (forward: 5′-[…]-3′; reverse: 5′-[…]-3′), CYP2C11 (forward: 5′-[…]-3′; reverse: 5′-[…]-3′), CYP2D1 (forward: 5′-[…]-3′; reverse: 5′-[…]-3′), CYP2E1 (forward: 5′-[…]-3′; reverse: 5′-[…]-3′), CYP3A1 (forward: 5′-[…]-3′; reverse: 5′-[…]-3′), CYP3A2 (forward: 5′-[…]-3′; reverse: 5′-[…]-3′), and P-glycoprotein (forward: 5′-[…]-3′; reverse: 5′-[…]-3′). The PCR for CYP1A1 was performed as follows: 5 min at 95°C and then 35 cycles of 30 s at 94°C, 30 s at 54°C, and 60 s at 72°C. For CYP1A2 and CYP3A2 amplification, the PCR cycle number was 30 times through a 30 s denaturing step at 94°C, a 30 s annealing step at 55°C, and a 30 s elongation step at 72°C. For CYP2D1 and CYP3A1, the PCR cycle number was 30 times through a 60 s denaturing step at 94°C, a 60 s annealing step at 56°C, and a 125 s elongation step at 72°C. […] The PCR amplicons were then electrophoresed in 1% agarose gels containing 40 mM Tris/20 mM glacial acetic acid/2 mM EDTA buffer, and the relative densities of the PCR products were quantitated by use of Image Gauge software (Fujifilm, Tokyo, Japan). […]

Cytochrome P450 = assay: Total CYP content in liver microsomes of treated rats; assay type: in vivo; conditions: rat liver microsomes; oral 2 g/kg APE or 50 mg/kg AND daily for 5 days
Description: as §1

P-glycoprotein = assay: Immunoblot and RT-PCR of hepatic P-glycoprotein in treated rats; assay type: in vivo; conditions: rat liver; APE or andrographolide for 5 days
Description: For P-glycoprotein expression, liver tissue was homogenized with phosphate-buffered saline containing 0.2% Triton X-100, 5 mM EDTA, and 1 mM PMSF. The homogenates were then centrifuged at 10,000 ×g for 30 min at 4°C. Proteins in the resulting supernatants were electrophoretically separated and were immunoblotted with P-glycoprotein antibody. The immunoreactive bands were detected by using an enhanced chemiluminescence plus Western blotting detection reagent (Amersham Biosciences, Boston, MA, USA).
Total RNA in liver samples was extracted by using the Trizol reagent (1 : 20, w/v). […] The sequences for the PCR primers were as follows: for CYP1A1 (forward: 5′-[…]-3′; reverse: 5′-[…]-3′), CYP1A2 (forward: 5′-[…]-3′; reverse: 5′-[…]-3′), CYP2C6 (forward: 5′-[…]-3′; reverse: 5′-[…]-3′), CYP2C11 (forward: 5′-[…]-3′; reverse: 5′-[…]-3′), CYP2D1 (forward: 5′-[…]-3′; reverse: 5′-[…]-3′), CYP2E1 (forward: 5′-[…]-3′; reverse: 5′-[…]-3′), CYP3A1 (forward: 5′-[…]-3′; reverse: 5′-[…]-3′), CYP3A2 (forward: 5′-[…]-3′; reverse: 5′-[…]-3′), and P-glycoprotein (forward: 5′-[…]-3′; reverse: 5′-[…]-3′). […] The PCR amplicons were then electrophoresed in 1% agarose gels containing 40 mM Tris/20 mM glacial acetic acid/2 mM EDTA buffer, and the relative densities of the PCR products were quantitated by use of Image Gauge software (Fujifilm, Tokyo, Japan). […]

[2] = Rat growth: body weight and liver weight after 5 days of daily oral dosing; assay type: in vivo, Sprague-Dawley rats; conditions: rats, oral 2 g/kg APE or 50 mg/kg AND daily for 5 days
Description: Seven-week-old male Sprague-Dawley rats cannulated in the jugular vein were purchased from the Bio LASCO Experimental Animal Center (Taipei, Taiwan). The animals were fed a standard rat diet and were randomly assigned into control, APE-treated, and andrographolide-treated groups (n = 5). Rats were housed in plastic cages in a room kept at 23 ± 1°C and 60 ± 5% relative humidity with a 12-hour light and dark cycle. Food and drinking water were available ad libitum. Control rats were orally administered methyl cellulose. […] After the 5th daily dose, rats were deprived of food overnight. On day 6, a 20 mg/kg oral dose of tolbutamide, as a solution in Cremophor EL (polyoxyl 35 hydrogenated castor oil, Sigma)/ethanol/water (30/10/60, v/v/v), was administered to each rat. After the administration of tolbutamide, serial blood samples were collected up to 12 h after dosing from each rat. The animals were then killed by exsanguination, and the livers were collected.
All animals were killed by exsanguination via the abdominal aorta while under carbon dioxide (CO2/O2, 70%/30%) anesthesia. Heparin was used as the anticoagulant. Plasma was separated from the blood by centrifugation (1750 ×g) at 4°C for 20 min. The liver from each animal was excised, weighed, and stored at −80°C. This research has received ethical approval from the institutional animal ethics committee of China Medical University, Taichung, Taiwan.

CYP2E1 = assay: Immunoblot and RT-PCR of hepatic CYP2E1 in treated rats; assay type: in vivo; conditions: rat liver; APE or andrographolide for 5 days
Description: Aliquots of microsomal protein (10 μg) were electrophoresed in an SDS-polyacrylamide gel, and proteins were then transferred to polyvinylidene fluoride membranes. After blocking, membranes were hybridized with antibodies to CYP1A1, CYP1A2, CYP2C6, CYP2C11, CYP2D1, CYP2E1, CYP3A1, and CYP3A2.
as §2, with “72°C.” for “72°C. For CYP1A2 and CYP3A2 amplification, the PCR cycle number was 30 times through a 30 s denaturing step at 94°C, a 30 s annealing step at 55°C, and a 30 s elongation step at 72°C. For CYP2D1 and CYP3A1, the PCR cycle number was 30 times through a 60 s denaturing step at 94°C, a 60 s annealing step at 56°C, and a 125 s elongation step at 72°C.”

CYP3A = assay: Midazolam 1-hydroxylation in liver microsomes of treated rats; assay type: in vivo; conditions: rat liver microsomes; oral 2 g/kg APE or 50 mg/kg AND daily for 5 days
Description: as §1

CYP1A2 = assay: Methoxyresorufin O-demethylation in liver microsomes of treated rats; assay type: in vivo; conditions: rat liver microsomes; oral 2 g/kg APE or 50 mg/kg AND daily for 5 days
Description: as §1

Diclofenac 4-hydroxylase (2C) (CYP2C): 43.8 ± 10.5^b pmol/min/mg protein | mRNA levels of CYP1A1, CYP1A2, CYP2C6, CYP2C11, and CYP3A2 [1]: induced | Cytochrome P450 content (Cytochrome P450): 674 ± 64^b pmol/mg protein | Protein and mRNA levels of membrane transporter P-glycoprotein (P-glycoprotein): only a minor effect | CYP2E1 protein or mRNA levels compared with controls (CYP2E1): no changes | Midazolam 1-hydroxylase (3A) (CYP3A): 320 ± 84^ab pmol/min/mg protein | Methoxyresorufin O-demethylase (1A2) (CYP1A2): 25.6 ± 7.2^b pmol/min/mg protein
Structure (SMILES): C=C1CC[C@@H]2[C@](C)(CO)[C@H](O)CC[C@@]2(C)[C@@H]1C/C=C1/C(=O)OC[C@H]1O [andrographolide, Andrographolide]
Relative liver weight ([2]; (liver weight/body weight) × 100): 3.8 ± 0.3% | Body weight, Final ([2]; mean ± SD, n = 5): 332 ± 13^a g | Liver weight ([2]; mean ± SD, n = 5): 12.8 ± 1.5 g

Reference: article PMC3753754, “Andrographis paniculata Extract and Andrographolide Modulate the Hepatic Drug Metabolism System and Plasma Tolbutamide Concentrations in Rats” (Evidence-based Complementary and Alternative Medicine : eCAM, 2013)
